Square brackets hold non-standard residues; d marks the D form. Side chains are listed from the residue outwards. Ends that are not written are not given here. 5'‑hexylamino oligonucleotide ISIS 786434 = not defined here; Aib = CC(C)(N)C(=O)O; Mpa = O=C(O)CCS
What was measured:
MALAT1 [1] = assay: In situ hybridization of MALAT1 (QuantiGene ViewRNA) in mouse tissues after intravenous ASO; format: in vivo
Text: NO: 63) or a GLP-1 conjugated MALAT1 ASO (ISIS 816385) described in Example 1 at concentrations of 1.8. 0.6, or 0.2 μmol/kg. […] MALAT1 expression was detected using the QuantiGene ViewRNA tissue assay (Affymetrix, cat. No. QVT0011). Species-specific MALAT1 probes were purchased from Affymetrix (cat. No. VB-11110-01/mouse; VF1-13963/monkey). In brief, mouse tissues were fixed in 10% neutral-buffered formalin and embedded into paraffin and sectioned into […]. After deparaffinization, the tissue slides were boiled in Affymetrix pretreatment solution for 10-30 minutes followed by treatment with protease at 40° C. for 10 to 40 minutes depending on tissue. The MALAT1 RNA probe was used at a 1:40 dilution and was incubated with sample at 40° C. for 120 minutes. After washing, the MALAT1 RNA/probe complex was hybridized with preamplifier, amplifier, and AP-oligonucleotides at 40° C. for 25, 15, and 15 minutes, respectively. After removal of free AP oligonucleotide by washing in PBS, the slide was incubated with Fast Red substrate at room temperature for 30 minutes. The tissue images were acquired using an Aperio scanner. Hung et al., 2013 Nuc Acid Ther. 369-78. To determine a dose response of a GLP-1 conjugated MALAT1 ASO (ISIS 816385) described in Example 1 on pancreatic MALAT1 expression, male C57BL/6 mice fed a chow diet received a single intravenous injection of ISIS 816385 or an unconjugated MALAT1 ASO (ISIS 556089) described above at concentrations of 0.2, 0.06, and 0.02 μmol/kg. MALAT1 expression was detected using the QuantiGene ViewRNA tissue assay described above.

MALAT1 [2] = assay: MALAT1 in situ hybridization in beta islet cells after i.v. GLP-1 ASO conjugates with various linkers; format: in vivo, mouse; settings: male C57BL/6 mice; intravenous 0.6 μmol/kg/week once a week for three weeks; 72 hours after final injection
MALAT1 [3] = assay: MALAT1 expression in liver by in situ hybridization; format: in vivo, mouse
Experimental: Tissues were prepared as described herein, Example 11. The in situ mRNA amplification and labelling process was performed on the Ventana Discovery ULTRA, an Automated ISH platform(Ventana Medical System, Inc) using the RNAscope® VS Assay based on Advanced Cell Diagnostics (ACD). Customized probes were obtained from ACD for the detection of MALAT1 mRNA, and various parameters were tested to optimize the novel RNAscope method for ISH. The signal was amplified using multiple steps, followed by labeled probes and detected using the RNAscope® 2.5 VS Reagent Kit-RED. […] All animals were sacrificed approximately 72 hrs after last, and liver harvested for ex vivo analysis of MALAT1 expression by in situ hybridization. Tissues were prepared, and in situ hybridization performed, as described herein, Example 12.

MALAT-1 mRNA = assay: Dose-response inhibition of MALAT-1 mRNA in pancreatic islets 72 hrs after single s.c. dose, various linkers; format: in vivo, mouse; settings: 0.01 μmol/kg single subcutaneous injection, relative to PBS
MALAT-1 = assay: Dose-dependent reduction of MALAT-1 expression in LVX-GLP1R cells; format: cell-based, human
Experimental: HEK cells stably expressing FLAG-tagged GLP1R were generated by infecting HEK 293 cells with FLAG-tagged GLP1R containing lentivirus produced by transfection of 293T cells with pLVX-IRES-Puro (Clontech Laboratories Inc., Mountainview, CA) harboring the FLAG-GLP1R insert. Infected cells were selected with puromycin (2 μg/ml) and then analyzed for receptor expression by western blot and immunofluorescence. Cultured GLP1R cells were plated at a density of 10,000 cells per well and treated with 0.3, 1, 3, 9, 27, 82, 247, 741, 2,222, 6,667, and 20,000 nM modified oligonucleotide for approximately 24 hours. After the treatment period, total RNA was prepared using an RNeasy mini kit (Qiagen, Valencia, CA, USA) and qRT-PCR was performed using the primer probe set RTS2739 (forward sequence: […] (SEQ ID NO: 74), reverse sequence: […] (SEQ ID NO: 75), probe sequence: […] (SEQ ID NO: 76). Briefly, ˜50 ng total RNA in 5 d water was mixed with 0.3 d primer probe sets containing forward and reverse primers (10 μM of each) and fluorescently labeled probe (3 μM), 0.3 W RT enzyme mix (Qiagen), 4.4 d RNase-free water, and 10 d of 2×PCR reaction buffer in a 20 d reaction. Reverse transcription was performed at 48° C. for 10 min, 40 cycles of PCR were conducted at 94° C. for 20 s, and 60° C. for 20 s within each cycle, using StepOne Plus RT-PCR system (Applied Biosystems, Phoenix, AZ, USA). The mRNA levels were normalized to the amount of total RNA present in each reaction as determined by Ribogreen assay (Life Technologies) and normalized to the saline control (100% expression).

MALAT1 [4] = assay: MALAT1 inhibition in isolated islets 72 hrs after single s.c. dose, various linkers; format: in vivo, mouse

Substance: ISIS 816385 (H[Aib]EGTFTSDVSSYLEEQAAKEFIAWLVKGGPSSGAPPPSC([Mpa-5'‑hexylamino oligonucleotide ISIS 786434])-NH2; reading uncertain; also: Cys40 joined to the linker by a disulfide)
- effect in liver (MALAT1 in situ hybridization) (MALAT1 [1]; Study 2, single intravenous injection, any of the doses 0.2, 0.06, 0.02 μmol/kg): No observable effect
- MALAT1 staining in beta islet cells of the pancreas (in situ hybridization) (MALAT1 [1]; Study 2, single intravenous injection, at the 0.2 μmol/kg dose and 0.06 μmol/kg dose): reduced MALAT1 staining
- MALAT1 expression in pancreatic beta islet cells (in situ hybridization) (MALAT1 [1]; male C57BL/6 mice, 2 intravenous injections of 1.8, 0.6 or 0.2 μmol/kg, 72 hours after final injection): reduced MALAT1 expression
- MALAT1 expression in beta islet cells compared to saline control (in situ hybridization) (MALAT1 [2]): reduced
- Liver MALAT1 expression (MALAT1 [3]; 2 μmol/kg intravenous, compared to vehicle control): reduced compared to vehicle control
- Liver MALAT1 expression in hepatocytes (MALAT1 [3]; 2 μmol/kg subcutaneous, compared with ISIS 556089): reduced in hepatocytes of animals treated with ISIS 816385 to a greater extent
- % inhibition of MALAT-1 mRNA in Pancreatic Islets (MALAT-1 mRNA): 52%
- dose-dependent inhibition of MALAT-1 (MALAT-1; GLP1R HEK cells, GLP-1 complexed ASOs with or without a TCA linker versus parent): increased dose-dependent inhibition
- IC50 (MALAT-1; approximately 24 hours, read-out: IC50 (MALAT-1 expression in GLP1R HEK cells)): 260 nM
- In vivo ED50 (MALAT1 [4]; MALAT1 in isolated islets, single subcutaneous injection): 0.0088 µmol/kg
- % MALAT1 inhibition (MALAT1 [4]; isolated islets, female C57BL/6Crl mice, single subcutaneous injection of 0.01 μmol/kg): 41%

— US20240293563A1, “GLP-1 RECEPTOR LIGAND MOIETY CONJUGATED OLIGONUCLEOTIDES AND USES THEREOF” (priority 2017, published 2024)
